Assay results published in US20080248112A1 (priority 2007, published 2008).
“Also recorded” adds a separate entry of the source.

Tested on: glycosylated hemoglobin level (HbAlC)
Experiment: Clinical study of long term administration of ranolazine: HbA1C in patients having coronary disease
Type: in vivo, human
Excerpt: Baseline is in-hospital visit prior to hospitalization.

COc1ccccc1OCC(O)CN1CCN(CC(=O)Nc2c(C)cccc2C)CC1 (racemic) [Ranolazine, (±)-N-(2,6-dimethylphenyl)-4-[2-hydroxy-3-(2-methoxyphenoxy)-propyl]-1-piperazineacetamide]
Number of patients with HbA1c ≧7% (Diabetes at enrollment, n = 1098, Month 16): 63 | Number of patients with HbA1c ≧7% (No Diabetes at enrollment, n = 2170, Final Visit): 92 | Number of patients with HbA1c ≧7% (No Diabetes at enrollment, n = 2170, Month 4): 78 | Number of patients with HbA1c ≧7% (No Diabetes at enrollment, n = 2170, Month 8): 72 | Number of patients with HbA1c ≧7% (No Diabetes at enrollment, n = 2170, Month 16): 21 | Effect on HbAlc levels (all patients treated, FIGS. 1 and 2): HbAlc lowering effect on all patients treated; also recorded: significantly lowers serum HbAlC levels | Effect on HbAlc levels (diabetic patients, FIG. 2): reduction in the amount of HbAlC levels | Effect on HbAlc levels (non-diabetic patients, FIG. 2): reduction in the amount of HbAlC levels
